Measured values published in US11485720B2, “Anti-infective agents” (University of Dundee, priority 2016, dated 2022).

Tests used:
[1] = molecular target: T1, Plasmodium falciparum lysyl t-RNA synthetase (Pf-KRS1) (Plasmodium falciparum, UniProt Q8IDJ8); experiment: Pf-KRS1 inhibition biochemical assay (Kinase-Glo, ATP depletion); conditions: read-out: Pf-KRS pIC50 (converted)
T1 construct: Pf KRS1-; made in house; host or cells: E. coli BL21 (DE3)
Procedure, shortened: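 Recombinant Pf-KRS1 (75 nM working concentration) in HEPES/KOH/MgCl2/KCl buffer with 3 μM ATP, 60 μM L-lysine, 0.4 mg/ml yeast tRNA and pyrophosphatase; compounds at 50 μM–2.5 nM final. Reaction ran 5 h at room temperature, then remaining ATP was read by Kinase-Glo luminescence. IC50 came from nonlinear fits of % inhibition against controls.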

[2] = tested on: Plasmodium falciparum strain 3D7; experiment: Plasmodium falciparum 3D7 in vitro growth inhibition (SYBRgreen I); format: cell-based; conditions: Plasmodium falciparum, 3D7; read-out: pEC50 for Pf 3D7 (converted)
Procedure, shortened: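 10-point, 1-in-3 dilution series from a top concentration of 50 μM; parasite growth read as SYBRgreen I fluorescence on double-stranded DNA (ex 485/em 528 nm). EC50 = concentration causing 50% parasite death, from at least 3 independent experiments.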

Cryptosporidium parvum = experiment: In vitro Crytosporidium inhibition assay; format: cell-based; conditions: Cryptosporidium parvum; read-out: Cryptosporidium parvum pEC50 (converted)
Description: Assay Method for Measurement of In Vitro Inhibition of Crytosporidium.
These experiments were run in accordance with the method of Besssoff et. al. Antimicrob. Agents Chemother. 2013, 57:1804-1814. Results from these experiments are provided in the Experimental Results hereinafter.

Hep G2 = Hep G2 in-vitro cytotoxicity assay; format: cell-based; conditions: Homo sapiens, HepG2, read-out: Hs HEPG2 pEC50 (converted)
Procedure, shortened: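 Hep G2 human hepatocyte carcinoma cells serve as a general mammalian cell toxicity indicator, following the Mersch-Sundermann procedure.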

T1 sequence (Q8IDJ8 entry or part of it, looked up, natural form): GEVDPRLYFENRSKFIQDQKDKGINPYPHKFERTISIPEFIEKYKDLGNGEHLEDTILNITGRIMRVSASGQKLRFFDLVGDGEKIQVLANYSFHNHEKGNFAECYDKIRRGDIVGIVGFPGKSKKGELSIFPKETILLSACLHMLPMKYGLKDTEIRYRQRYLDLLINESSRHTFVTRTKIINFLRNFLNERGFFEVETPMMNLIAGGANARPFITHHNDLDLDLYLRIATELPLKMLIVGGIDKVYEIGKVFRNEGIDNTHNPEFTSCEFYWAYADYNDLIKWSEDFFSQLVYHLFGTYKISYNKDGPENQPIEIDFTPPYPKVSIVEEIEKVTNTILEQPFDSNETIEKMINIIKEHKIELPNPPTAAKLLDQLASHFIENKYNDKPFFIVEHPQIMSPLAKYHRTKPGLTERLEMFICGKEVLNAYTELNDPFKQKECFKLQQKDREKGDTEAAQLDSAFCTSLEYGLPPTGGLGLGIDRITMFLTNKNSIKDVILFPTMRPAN

In the case of `O=C(NCC1CCCCC1)c1cc(=O)c2cc(F)cc(O)c2o1` [Example 70, N-(cyclohexylmethyl)-6-fluoro-8-hydroxy-4-oxo-4H-chromene-2-carboxamide], the IC50 [1] is reported as 50.1 nM, the EC50 [2] is reported as 100 nM and the EC50 (Cryptosporidium parvum) is reported as 39.8 nM. For the same compound, the EC50 (Hep G2) was 31600 nM.
